Reference: patent US8574563B2 (Bristol-Myers Squibb Company, priority 2006, dated 2013)

The compounds below were run on HCV 1b-377-neo replicon cells (assay: HCV replicon assay, HCV 1b-377-neo replicon cells (1b FRET)). Details: HCV 1b-377-neo replicon cells; HCV 1b genotype; read-out: EC50 range against HCV 1b (Table 2, Range).
Assay type: cell-based, Hepatitis C virus genotype 1b
In short: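 Compounds tested in HCV genotype 1b-377-neo replicon cells with a FRET read-out. Cells resistant to a reference NS5A inhibitor through a Y2065H NS5A mutation were run alongside wild-type cells.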

Q: How did the EC50 turn out when COC(=O)N[C@@H](C(=O)N1CCC[C@H]1c1ncc(-c2ccc(-c3ccc(-c4cnc([C@@H]5CCCN5C(=O)c5ccccn5)[nH]4)cc3)cc2)[nH]1)c1ccccc1 [Example 67, methyl ((1R)-2-oxo-1-phenyl-2-((2S)-2-(5-(4′-(2-((2S)-1-(2-pyridinylcarbonyl)-2-pyrrolidinyl)-1H-imidazol-5-yl)-4-biphenylyl)-1H-imidazol-2-yl)-1-pyrrolidinyl)ethyl)carabamate] was run?
A: 0.001 to 0.999 nM

Same assay, conditions: Hepatitis C virus, HCV 1b-377-neo replicon cells; HCV 1b genotype; read-out: EC50 range against HCV 1b (Table 2, Range)

Q: How did the EC50 turn out when COC(=O)N[C@H](C(=O)N1CCC[C@H]1c1ncc(-c2ccc(-c3ccc(-c4cnc([C@@H]5CCCN5C(=O)[C@@H](NC5=NCCS5)C(C)C)[nH]4)cc3)cc2)[nH]1)C(C)C [cj-15c, methyl ((1S)-1-(((2S)-2-(5-(4′-(2-((2S)-1-(N-(4,5-dihydro-1,3-thiazol-2-yl)-L-valyl)-2-pyrrolidinyl)-1H-imidazol-5-yl)-4-biphenylyl)-1H-imidazol-2-yl)-1-pyrrolidinyl)carbonyl)-2-methylpropyl)carbamate] was run?
A: 0.001 to 0.999 nM

Q: CC(C)[C@@H](C(=O)N1CCC[C@H]1c1nc(-c2ccc(-c3ccc(-c4cnc([C@@H]5CCCN5C(=O)[C@H](C(C)C)N(C)C(=O)OC(C)(C)C)[nH]4)cc3)cc2)c[nH]1)N(C)C(=O)OC(C)(C)C [Example F30, tert-butyl ((1S)-1-(((2S)-2-(5-(4′-(2-((2S)-1-((2S)-2-((tert-butoxycarbonyl)(methyl)amino)-3-methylbutanoyl)-2-pyrrolidinyl)-1H-imidazol-4-yl)-4-biphenylyl)-1H-imidazol-2-yl)-1-pyrrolidinyl)carbonyl)-2-methylpropyl)methylcarbamate] was tested. Which EC50 did it give?
A: 1 to 99 nM

Q: COC[C@H](NC(=O)OC)C(=O)N1CCC[C@H]1c1ncc(-c2ccc(-c3ccc(-c4cnc([C@@H]5CCCN5C(=O)[C@H](C)NC(=O)OC)[nH]4)cc3)cc2)[nH]1 [Example M100, methyl ((1S)-2-((2S)-2-(5-(4′-(2-((2S)-1-(N-(methoxycarbonyl)-L-alanyl)-2-pyrrolidinyl)-1H-imidazol-5-yl)-4-biphenylyl)-1H-imidazol-2-yl)-1-pyrrolidinyl)-1-(methoxymethyl)-2-oxoethyl)carbamate] was tested. Which EC50 did it give?
A: 1 to 99 nM

Q: How did the EC50 turn out when COC(=O)N[C@@H](C(=O)N1CCC[C@H]1c1ncc(-c2ccc(-c3ccc(-c4cnc([C@@H]5CCCN5C(=O)CC5CC5)[nH]4)cc3)cc2)[nH]1)c1ccccc1 [Example 34, methyl ((1R)-2-((2S)-2-(5-(4′-(2-((2S)-1-(cyclopropylacetyl)-2-pyrrolidinyl)-1H-imidazol-5-yl)-4-biphenylyl)-1H-imidazol-2-yl)-1-pyrrolidinyl)-2-oxo-1-phenylethyl)carbamate] was run?
A: 0.001 to 0.999 nM

Q: With CN(C)[C@@H](C(=O)N1CCC[C@H]1c1ncc(-c2ccc(-c3ccc(-c4[nH]c([C@@H]5CCCN5C(=O)[C@@H](c5ccccc5)N(C)C)nc4C(=O)OCc4ccccc4)cc3)cc2)[nH]1)c1ccccc1 [Example J22, benzyl 2-((2S)-1-((2R)-2-(dimethylamino)-2-phenylacetyl)-2-pyrrolidinyl)-5-(4′-(2-((2S)-1-((2R)-2-(dimethylamino)-2-phenylacetyl)-2-pyrrolidinyl)-1H-imidazol-5-yl)-4-biphenylyl)-1H-imidazole-4-carboxylate] as the compound, how does the EC50 read?
A: 0.001 to 0.999 nM

Q: How did the EC50 turn out when CC(C)C[C@@H](C(=O)N1CCC[C@H]1c1nc(-c2ccc(-c3ccc(-c4cnc([C@@H]5CCCN5C(=O)[C@H](CC(C)C)N(C)C(=O)OC(C)(C)C)[nH]4)cc3)cc2)c[nH]1)N(C)C(=O)OC(C)(C)C [Example F28, tert-butyl ((1S)-1-(((2S)-2-(5-(4′-(2-((2S)-1-((2S)-2-((tert-butoxycarbonyl)(methyl)amino)-4-methylpentanoyl)-2-pyrrolidinyl)-1H-imidazol-4-yl)-4-biphenylyl)-1H-imidazol-2-yl)-1-pyrrolidinyl)carbonyl)-3-methylbutyl)methylcarbamate] was run?
A: 1 to 99 nM

Q: With COC(=O)N[C@@H](C)C(=O)N1CCC[C@H]1c1ncc(-c2ccc(-c3ccc(-c4cnc([C@@H]5CCCN5C(=O)[C@@H](NC5=NCCN5)C(C)C)[nH]4)cc3)cc2)[nH]1 [cj-11f, methyl ((1S)-2-((2S)-2-(5-(4′-(2-((2S)-1-(N-(4,5-dihydro-1H-imidazol-2-yl)-L-valyl)-2-pyrrolidinyl)-1H-imidazol-5-yl)-4-biphenylyl)-1H-imidazol-2-yl)-1-pyrrolidinyl)-1-methyl-2-oxoethyl)carbamate] as the compound, how does the EC50 read?
A: 1 to 99 nM

Q: Which EC50 does the source give for CN(C)[C@@H](C(=O)N1CCC[C@H]1c1ncc(-c2ccc(-c3ccc(-c4cnc([C@@H]5CCCN5C(=O)[C@@H](c5ccccc5)N(C)C)[nH]4)cc3)cc2)[nH]1)c1ccccc1 [Example 1, (1R,1′R)-2, 2′-(4,4′-biphenyldiylbis (1H-imidazole-5,2-diyl(2S)-2,1-pyrrolidinediyl))bis(N,N-dimethyl-2-oxo-1-phenylethanamine)] here?
A: 0.001 to 0.999 nM

Q: With COC(=O)N[C@@H]1CC[C@H](C(=O)N2CCC[C@H]2c2ncc(-c3ccc(-c4ccc(-c5cnc([C@@H]6CCCN6C(=O)[C@H](NC(=O)OC)c6ccccc6)[nH]5)cc4)cc3)[nH]2)C1 [cj-64, methyl ((1R)-2-((2S)-2-(5-(4′-(2-((2S)-1-(((1S,3R)-3-((methoxycarbonyl)amino)cyclopentyl)carbonyl)-2-pyrrolidinyl)-1H-imidazol-5-yl)-4-biphenylyl)-1H-imidazol-2-yl)-1-pyrrolidinyl)-2-oxo-1-phenylethyl)carbamate] as the compound, how does the EC50 read?
A: 0.001 to 0.999 nM

Q: Which EC50 does the source give for COC(=O)N[C@@H](C)C(=O)N1CCC[C@H]1c1ncc(-c2ccc(-c3ccc(-c4[nH]c([C@@H]5CCCN5C(=O)[C@H](C)NC(=O)OC)nc4C(F)(F)F)cc3)cc2)[nH]1 [Example J38, methyl ((1S)-2-((2S)-2-(5-(4′-(2-((2S)-1-(N-(methoxycarbonyl)-L-alanyl)-2-pyrrolidinyl)-4-(trifluoromethyl)-1H-imidazol-5-yl)-4-biphenylyl)-1H-imidazol-2-yl)-1-pyrrolidinyl)-1-methyl-2-oxoethyl)carbamate] here?
A: 0.001 to 0.999 nM

Q: Which EC50 does the source give for COC(=O)N[C@@H](C)C(=O)N(C)[C@@H](C)c1ncc(-c2ccc(-c3ccc(-c4[nH]c([C@@H]5CCCN5C(=O)[C@H](C)NC(=O)OC)nc4C(F)(F)F)cc3)cc2)[nH]1 [Example J42.a, methyl ((1S)-2-((2S)-2-(5-(4′-(2-((1S)-1-((N-(methoxycarbonyl)-L-alanyl)(methyl)amino)ethyl)-1H-imidazol-5-yl)-4-biphenylyl)-4-(trifluoromethyl)-1H-imidazol-2-yl)-1-pyrrolidinyl)-1-methyl-2-oxoethyl)carbamate] here?
A: 0.001 to 0.999 nM

Q: With CN(C)c1ccc(C(=O)N2CCC[C@H]2c2ncc(-c3ccc(-c4ccc(-c5cnc([C@@H]6CCCN6C(=O)[C@@H](c6ccccc6)N6CCCCC6)[nH]5)cc4)cc3)[nH]2)cc1 [Example 107-4, N,N-dimethyl-4-(((2S)-2-(5-(4′-(2-((2S)-1-((2R)-2-phenyl-2-(1-piperidinyl)acetyl)-2-pyrrolidinyl)-1H-imidazol-5-yl)-4-biphenylyl)-1H-imidazol-2-yl)-1-pyrrolidinyl)carbonyl)aniline] as the compound, how does the EC50 read?
A: 0.001 to 0.999 nM

Q: Which EC50 does the source give for CCCN(CCC)[C@H](C)C(=O)N1CCC[C@H]1c1ncc(-c2ccc(-c3ccc(-c4cnc([C@@H]5CCCN5C(=O)[C@@H](NC(=O)OC)C(C)C)[nH]4)cc3)cc2)[nH]1 [Example M83, methyl ((1S)-1-(((2S)-2-(5-(4′-(2-((2S)-1-(N,N-dipropyl-D-alanyl)-2-pyrrolidinyl)-1H-imidazol-5-yl)-4-biphenylyl)-1H-imidazol-2-yl)-1-pyrrolidinyl)carbonyl)-2-methylpropyl)carbamate] here?
A: 1 to 99 nM

Q: With COCC(=O)N[C@H](C(=O)N1CCC[C@H]1c1nc(-c2ccc(-c3ccc(-c4c[nH]c([C@@H]5CCCN5C(=O)[C@@H](NC(=O)COC)C(C)C)n4)cc3)cc2)c[nH]1)C(C)C [Example F62, 2-methoxy-N-((1S)-1-(((2S)-2-(4-(4′-(2-((2S)-1-((2S)-2-((methoxyacetyl)amino)-3-methylbutanoyl)-2-pyrrolidinyl)-1H-imidazol-4-yl)-4-biphenylyl)-1H-imidazol-2-yl)-1-pyrrolidinyl)carbonyl)-2-methylpropyl)acetamide] as the compound, how does the EC50 read?
A: 1 to 99 nM

Q: With COC(=O)N[C@@H](Cc1ccc(O)cc1)C(=O)N1CCC[C@H]1c1ncc(-c2ccc(-c3ccc(-c4cnc([C@@H]5CCCN5C(=O)[C@@H](NC(=O)OC)C(C)C)[nH]4)cc3)cc2)[nH]1 [cj-111, methyl ((1S)-1-(4-hydroxybenzyl)-2-((2S)-2-(5-(4′-(2-((2S)-1-((2S)-2-((methoxycarbonyl)amino)-3-methylbutanoyl)-2-pyrrolidinyl)-1H-imidazol-5-yl)-4-biphenylyl)-1H-imidazol-2-yl)-1-pyrrolidinyl)-2-oxoethyl)carbamate] as the compound, how does the EC50 read?
A: 0.001 to 0.999 nM

Q: Which EC50 does the source give for CCN(CC)CCC(NC(=O)OC)C(=O)N1CCC[C@H]1c1ncc(-c2ccc(-c3ccc(-c4cnc([C@@H]5CCCN5C(=O)[C@@H](NC(=O)OC)C(C)C)[nH]4)cc3)cc2)[nH]1 (stereo partly drawn) [Example M67a, methyl ((1S)-1-(((2S)-2-(5-(4′-(2-((2S)-1-(4-(diethylamino)-2-((methoxycarbonyl)amino)butanoyl)-2-pyrrolidinyl)-1H-imidazol-5-yl)-4-biphenylyl)-1H-imidazol-2-yl)-1-pyrrolidinyl)carbonyl)-2-methylpropyl)carbamate] here?
A: 100 to 999 nM

Q: With COC(=O)N[C@@H](C(=O)N1CCC[C@H]1c1ncc(-c2ccc(-c3ccc(-c4cnc([C@@H]5CCCN5C(=O)C5CCN(C)CC5)[nH]4)cn3)cc2)[nH]1)c1ccccc1 [Example 142, methyl ((1R)-2-((2S)-2-(5-(4-(5-(2-((2S)-1-((1-methyl-4-piperidinyl)carbonyl)-2-pyrrolidinyl)-1H-imidazol-5-yl)-2-pyridinyl)phenyl)-1H-imidazol-2-yl)-1-pyrrolidinyl)-2-oxo-1-phenylethyl)carbamate] as the compound, how does the EC50 read?
A: 1 to 99 nM
